Laboratory results reported in US20240391872A1, “PHENOXY-ACETYL-THIOUREIDO-BENZENESULFONAMIDE DERIVATIVES, AND THEIR USES” (priority 2021, published 2024).
pEC50, pIC50: −log10 of the molar value. Entries after “also recorded” stand apart in the source; their conditions may differ. Where two headings read alike, the source gives them in different places.

Key:
[1] = infected non-human primates; cited from earlier work
[2] = test system: Vero E6 cells; conditions: cited from earlier work
[3] = test system: SARS-CoV-2; assay: microbe, parasite or virus in culture; type: cell-based
[4] = test system: SARS-CoV-2; type: cell-based; conditions: Caco2 cells, 10 μM, MOI 0.01, 48 h
[5] = test system: endoplasmic reticulum; assay: Confocal imaging of ER morphology and compound localization in Huh7.5.1 cells; type: cell-based, human; conditions: 50 μM, 6 h, Calnexin staining
Method: FIG. 15 Huh7.5.1 cells were treated with 25 µM of RG10-Rhod or free Rhodamine for 3 h. Cells were fixed and stained using an anti-Calnexin antibody as a marker for ER membranes and DAPI for nuclear staining. One channel corresponds to rhodamine fluorescence. The micrographs show the individual channels and merge that have been acquired using confocal microscopy and processed using ImageJ. Scale bar=10 μm.
FIG. 17 Huh.7.5.1 cells were treated with 50 μM of RG10 for 6 h and then were processed for confocal imaging.
Cells were then fixed and stained using an anti-Calnexin antibody as a marker for ER membranes and DAPI for nuclear staining. The micrographs show the individual channels and merge that have been acquired using confocal microscopy and processed using ImageJ. Scale bar=10 μm.
Cells grown on #1.5 glass coverslips were fixed with 4% PFA for 15 min. Cells were then permeabilized with 0.1% Triton X100 and saturated with 0.2% BSA. Then, primary antibody incubation was performed for 1 h. After a series of PBS washes, secondary antibodies were added for 30 min. DAPI staining was performed for 10 min to obtain nuclear staining. Coverslips were mounted on glass slides using Mowiol mounting media. Images were acquired using a Leica SP5 confocal microscope.

[6] = test system: HCoV-229E-Renilla; type: cell-based, human coronavirus 229E
[7] = test system: ZIKV; type: cell-based, Zika virus; conditions: MOI 0.3, 24 h
[8] = test system: SARS-CoV-2; assay: microbe, parasite or virus in culture; type: cell-based; conditions: for pIC50: SARS-CoV-2 MOI 0.01, 48 h, vRNA RT-qPCR; for antiviral activity (relative SARS-CoV-2 vRNA levels): MOI 0.01, 48 h, indicated concentrations
[9] = test system: sXBP-1; assay: ER stress mediator RNA levels by RT-qPCR in Huh7.5.1 cells; type: cell-based, human
[10] = test system: N-mRuby3 CoV2; assay: Live cell imaging and tracking of N-mRuby3 CoV2 particles in Huh7.5.1 cells; type: cell-based, SARS-CoV-2
[11] = Cytotoxicity, LDH release assay; type: cell-based
[12] = test system: sXBP1; assay: sXBP1 RNA levels in HAE cells infected with CoV2; type: cell-based, human; conditions: 10 μM, CoV2 MOI 0.01, 4 days
Method: FIG. 36 HAE cells were treated with 10 μM of RG10 and Remdesivir and then infected with wild type CoV2 at MOI 0.01 for 4 days. Graphs show relative sXBP1 RNA levels normalized with GAPDH RNA expression.
(§1) Cells were lysed and RNA immediately extracted using the Luna Cell Ready Lysis Module according to the manufacturer's protocol (New England Biolabs). RT-qPCR on extracted RNA was performed using the Luna One-Step RT-qPCR Kit (New England Biolabs). The samples were analyzed using a Lightcycler 480 instrument (Roche) using the following thermal cycle: Reverse transcription step at 55° C. for 15 min, initial denaturation at 95° C. for 2 min. Then, 40 cycles were programmed consisting of 15 s of denaturation at 95° C. followed by 30 s of annealing/extension at 55°. Fluorescent data collection was performed at the end of each cycle. SARS-CoV-2 viral RNA was detected using the N1 probe that targets specifically the N protein. For normalization, primers targeting Rpl27 or GAPDH were utilized.

[13] = test system: SARS-CoV-2; assay: SARS-CoV-2 infection of human airway epithelia (HAE); type: cell-based; conditions: 10 μM; for viral RNA by RT-qPCR: wild type CoV2 MOI 0.01, 4 days
Method: FIG. 33 HAE cells were either untreated (Mock) or treated with 10 μM of RG10 and then infected with SARS-CoV-2 mNeonGreen virus at MOI 0.1. After 4 days, cells were fixed and stained for CoV2 spike protein and actin filaments (phalloidin staining). Z-stack images were acquired using a confocal microscope and processed using ImageJ to produce an average intensity image for each individual channel. Scale bar=20 μm.
FIG. 34 HAE cells were either untreated (Mock) or treated with 10 μM of RG10 and then infected with SARS-CoV-2 mNeonGreen virus at MOI 0.1. After 4 days, cells were fixed and stained for CoV2 spike protein and actin filaments (phalloidin staining). Z-stack images were acquired using a confocal microscope and processed using ImageJ to produce an average intensity image for each individual channel. Scale bar=20 μm.
FIG. 35 3D representation of the images from [FIG. 33] and [FIG. 34] using the Imaris software. Scale bar=20 μm.
FIG. 37 Same samples from [FIG. 36] were processed to measure by RT-qPCR, relative vRNA levels normalized by Rpl27 RNA expression. The bars are means+/−SD from two pooled independent experiments. Student's t-test **p value<0.01; ***p value<0.005; ****p value<0.001.
FIG. 42 HAE cells were treated with 10 μM of RG10, RG10b, and Remdesivir and then infected for 4 days with CoV2 at MOI 0.01. Cells were then processed for RNA extraction and RT-qPCR experiments. […] Student's t-test *p value<0.05 **p value<0.01; ***p value<0.005.
Huh7.5.1 (Zhong J. et al. (2005) Proceedings of the National Academy of Sciences of the United States of America 102:9294-9), Vero E6 (ECACC #85020206), Caco2, and HEK 293T cells were cultured in DMEM GlutaMAX (Thermo Fisher Scientific) supplemented with 10% fetal calf serum and penicillin-streptomycin (500 μg/ml; GIBCO). HAE cells (Epithelix) were cultured in Mucilair media at the basal side and maintained at air-liquid interface. Apical washes were performed each 2-3 days by temporarily adding Mucilair media for 30 minutes. All cell types were maintained at 37° C. in a 5% CO2 atmosphere.
as §1, with “For normalization, primers targeting Rpl27 or GAPDH were utilized.” left out

[14] = test system: SARS-CoV-2; assay: Time-of-addition experiment, CoV2 in Vero E6 cells; type: cell-based
[15] = Pharmacokinetics experiments in mice; type: in vivo; conditions: blood
From the text: (§2) The low potency of RG10 in HAE could be attributed to its weak stability and therefore, the inventor designed a novel RG10 derivative, which the inventor called RG10b. This derivative harbors a modification shielding a molecular weakness present in RG10.

[16] = Innocuity assessment in mice (weight); type: in vivo; conditions: concentrations up to 10 mg/kg
From the text: Two mice were used per condition.
as §2

[17] = Huh 7.5.1 cells, 10 μM, MOI 0.01, 48 h
[18] = Huh7.5.1 cells, 10 μM, MOI 0.5, 48 h
[19] = Severe acute respiratory syndrome coronavirus 2, Vero C1008, Vero E6 cells
[20] = Huh 7.5.1 cells, 25 μM, MOI 0.01, 48 h

## CCN(CCO)CCCC(C)Nc1ccnc2cc(Cl)ccc12 (stereo not drawn) [Hydroxychloroquine]
[1]
  viral loads: does not decrease the viral loads
[2]; Vero E6 cells
  pEC50: ~5.70

## COc1ccc(OCCNC(=S)Nc2ccc(S(=O)(=O)NC3CCCCC3)cc2)cc1 [RG10]
[3]; [17]
  CoV2 antiviral activity (relative vRNA levels): high CoV2 antiviral activity
[3]; [18]
  neosynthesized Spike protein, Western blot: could barely be detected
  viral RNA synthesis, dsRNA immunolabeling: prevents viral RNA synthesis
  viral protein synthesis, microscopy and flow cytometry: prevent viral protein synthesis
[3]; Huh7.5.1 cells, 10 μM, indicated MOI, 48 h
  potency at high multiplicity of infection: retained potency at high multiplicity of infection (MOI) similar to Rem
[3]; Severe acute respiratory syndrome coronavirus 2, Huh-7.5.1, potency in Huh7.5.1 cells (FIG. 3)
  pEC50: ~5.82
[4]
  CoV2 antiviral activity (relative vRNA levels): high CoV2 antiviral activity
[5]
  ER morphology: perturbed ER morphology
[6]
  antiviral activity against HCoV-229E: significant antiviral activity, although potency was lower
[7]; Vero E6, 10 μM
  antiviral activity against ZIKV (relative vRNA levels): no detectable effect on ZIKV; also recorded: unable to inhibit ZIKV replication
[8]; [19]
  pIC50: 5.81
[8]; Vero E6 cells
  antiviral activity (relative SARS-CoV-2 vRNA levels): potent antiviral molecule with similar activity levels as Remdesivir; also recorded: high CoV2 antiviral activity
[9]; 10 μM
  sXBP-1 RNA levels: no difference was observed between RG10 and RG7
[9]; 50 μM, 6 h
  sXBP-1 RNA levels: enriched
[10]
  mean particle speed of virus: slowed down virus movement to the ER
[11]
  cytotoxicity: did not show cytotoxicity at working concentrations
[11]; LDH release, working concentrations
  cytotoxicity: very low cytotoxicity compared to Latrunculin, jasplakinolide and cytocalasin D
[12]
  sXBP-1 RNA levels: upregulated
[13]; 4 days
  HAE viability: viability was similar
[13]; MOI 0.1, 4 days
  viral infection, fluorescent mNeonGreen virus: decreases viral infection
[13]
  viral RNA by RT-qPCR: decreased by RG10, although the extent of the decrease was much lower than Remdesivir treatment
[14]; Vero E6, MOI 0.1, 10 μM during the first 4 h of infection and washed-out
  antiviral activity, vRNA levels, RG10 Pre: no antiviral activity when incubated only during virus entry
[14]; Vero E6, MOI 0.1, 10 μM starting at 4 h post-infection
  vRNA expression levels, RG10 Post: significantly decreased vRNA expression levels
[14]; Vero E6, MOI 0.1, 10 μM, 24 h
  viral N protein and dsRNA levels by flow cytometry, entry steps: some inhibition was also observed at the entry steps
  viral N protein and dsRNA levels by flow cytometry, post entry: strong antiviral activity post entry

## O[C@@H](CS)[C@@H](O)CS [DTT, reference compound]
[9]; 1 mM, 6 h, positive control of ER stress
  sXBP-1 RNA levels: enriched

## COc1ccc(N2CCC(NC(=S)Nc3ccc(S(=O)(=O)NC4CCCCC4)cc3)C2)cc1 (stereo not drawn) [RG10b]
[15]
  half-life relative to RG10: more than 3 fold
[15]; mouse, read-out: pharmacokinetic half-life / stability in vivo
  half-life: > 2 h
[8]; Severe acute respiratory syndrome coronavirus 2, Vero C1008, Vero E6 cells, CoV2 48 h (FIGS. 38 and 39)
  pEC50: > 6.00
[8]; [19]
  pIC50: ~6.00
[8]; Vero E6 cells
  antiviral activity (relative SARS-CoV-2 vRNA levels): more potent than RG10
[13]
  viral RNA by RT-qPCR: more potent than RG10, showing antiviral activity similar to Remdesivir
[16]
  innocuity / toxicity in mice: well supported by mice at concentrations up to 10 mg/kg; also recorded: no toxicity observed

## NC(=O)c1nc(F)c[nH]c1=O [favipiravir]
[2]; in vitro
  potency in vitro: very low potency in vitro

## COc1ccc(N2CCCC(NC(=S)Nc3ccc(S(=O)(=O)NC4CCCCC4)cc3)C2)cc1 (stereo not drawn) [RG27-8]
[3]; [17]
  antiviral activity (relative SARS-CoV-2 vRNA levels): cannot be observed
[3]; [20]
  antiviral activity (relative SARS-CoV-2 vRNA levels): harbor also an antiviral activity

## Tunicamycin [reference compound]
[7]; Vero E6, 1 μM
  antiviral activity against ZIKV (relative vRNA levels): active against both viruses
[8]
  antiviral activity against CoV2 (relative vRNA levels): active against both viruses

## COc1ccc(N2CCC(NC(=S)Nc3ccc(S(=N)(=O)NC4CCCCC4)cc3)C2)cc1 (stereo not drawn) [RG27-1]
[3]; [17]
  antiviral activity (relative SARS-CoV-2 vRNA levels): cannot be observed
[3]; [20]
  antiviral activity (relative SARS-CoV-2 vRNA levels): harbor also an antiviral activity
